Data set [1] has as its system Ochrobactrum. Description: Antibacterial activity against Ochrobactrum at 1 mg/ml after 24 hr by agar well diffusion assay. The settings on record: read-out: IZ. In kind it is functional.
In data set [2] the test system is Pantoea dispersa. Description: Antibacterial activity against Pantoea dispersa at 1 mg/ml after 24 hr by agar well diffusion assay. In kind it is functional. Conditions: read-out: IZ; call rule not given here.
For data set [3], the system named is Enterococcus. Description: Antibacterial activity against Enterococcus after 18 to 20 hr by serial broth dilution method. In kind it is functional. (In general: In broth dilution the organism is exposed to a series of concentrations in liquid medium.)
For data set [4], the system named is Staphylococcus aureus. Description: Antibacterial activity against Staphylococcus aureus after 18 to 20 hr by serial broth dilution method. Format: functional.
The subject of data set [5] is Ochrobactrum. Nature of the data set: Antibacterial activity against Ochrobactrum after 18 to 20 hr by serial broth dilution method. Format: functional.
In data set [6] the test system is Pantoea dispersa. Nature of the data set: Antibacterial activity against Pantoea dispersa after 18 to 20 hr by serial broth dilution method. In kind it is functional.
Data set [7] relates to Staphylococcus aureus. Nature of the data set: Antibacterial activity against Staphylococcus aureus at 1 mg/ml after 24 hr by agar well diffusion assay. In kind it is functional. The settings on record: read-out: IZ. On the technique in general: Agar diffusion results depend on both activity and mobility in agar.
Data set [8] has as its system Enterococcus. Description: Antibacterial activity against Enterococcus at 1 mg/ml after 24 hr by agar well diffusion assay. In kind it is functional. Conditions: read-out: IZ.
Data set [9] deals with Radical scavenging activity. Nature of the data set: Antioxidant activity assessed as DPPH radical scavenging activity […] after 30 min by spectrophotometric analysis. In kind it is functional. For orientation: DPPH is a stable violet radical that fades when it is reduced.
Data set [10] in a line: Metal chelating activity assessed as inhibition of Fe2+-ferrozine complex at 0.5 to 2 mg/ml after 10 min by spectrophotometric analysis. Format: physicochemical.

In brackets after ≈: the same amount, converted by molar mass.

What is called MIC is the lowest concentration that inhibits growth of the organism. A higher MIC goes with a less susceptible organism. What is called IC50 is the midpoint of a concentration-inhibition curve. Consider `O=C(Oc1ccc2ccccc2c1)c1cc(-c2cc3ccccc3o2)nc2ccccc12`, for which the zone of inhibition at 1000 µg/mL is 12 mm with Ochrobactrum [1], 12 mm in the data set with Pantoea dispersa [2], 12 mm in the data set with Staphylococcus aureus [7] and 10 mm with Enterococcus [8]. For the same compound, the MIC against Enterococcus [3] was greater than 500 mg/L; in the data set on Staphylococcus aureus [4], 500 mg/L (≈ 1200 µM); against Ochrobactrum [5] it was greater than 500 mg/L; in the data set with Pantoea dispersa [6], 250 mg/L (≈ 602 µM). Besides, the IC50 in [9] was determined as 15.6 mg/L (≈ 37.5 µM). In [10], the “inhibition (INH)” value is “Active”.
`Cc1nccn1C(=O)c1cc(-c2cc3ccccc3o2)nc2ccccc12`: the zone of inhibition at 1000 µg/mL in the data set with Ochrobactrum [1] was found to be 12 mm; with Pantoea dispersa [2], 15 mm; with Staphylococcus aureus [7] it was 8 mm; in the data set with Enterococcus [8], 9 mm. Moreover, the MIC is greater than 500 mg/L against Enterococcus [3], greater than 500 mg/L in the data set on Staphylococcus aureus [4], 250 mg/L (≈ 707 µM) against Ochrobactrum [5] and 250 mg/L (≈ 707 µM) in the data set with Pantoea dispersa [6].
Take `O=C(c1cc(-c2cc3ccccc3o2)nc2ccccc12)N1CCCCC1`: the zone of inhibition at 1000 µg/mL was 9 mm with Ochrobactrum [1], 10 mm with Pantoea dispersa [2], 11 mm with Staphylococcus aureus [7] and 7 mm with Enterococcus [8]. Besides, the minimal inhibitory concentration (MIC) against Enterococcus [3], against Staphylococcus aureus [4], against Ochrobactrum [5] and against Pantoea dispersa [6] was greater than 500 mg/L throughout.
With `O=C(Oc1c(Cl)cc(Cl)cc1Cl)c1cc(-c2cc3ccccc3o2)nc2ccccc12`, the zone of inhibition at 1000 µg/mL in the data set on Ochrobactrum [1] is 12 mm; with Pantoea dispersa [2], 14 mm; in the data set on Staphylococcus aureus [7], 12 mm; in the data set on Enterococcus [8], 10 mm. For the same compound, the MIC is 500 mg/L (≈ 1070 µM) in the data set on Enterococcus [3], 500 mg/L (≈ 1070 µM) against Staphylococcus aureus [4], 500 mg/L (≈ 1070 µM) against Ochrobactrum [5] and 250 mg/L (≈ 533 µM) against Pantoea dispersa [6]. In addition, the half-maximal inhibitory concentration (IC50) in data set [9] worked out at 24.34 mg/L (≈ 51.9 µM).
Take `CC1(C)S[C@@H]2[C@H](NC(=O)[C@H](N)c3ccccc3)C(=O)N2[C@H]1C(=O)O` [AMPICILLIN]: the zone of inhibition at 1000 µg/mL was 21 mm in the data set with Ochrobactrum [1], 20 mm in the data set on Pantoea dispersa [2], 20 mm in the data set with Staphylococcus aureus [7] and 24 mm in the data set with Enterococcus [8]. The MIC against Enterococcus [3], against Staphylococcus aureus [4], in the data set with Ochrobactrum [5] and with Pantoea dispersa [6] was 60 mg/L (≈ 172 µM) each time.
For the compound `O=C(Oc1ccc(Cl)cc1Cl)c1cc(-c2cc3ccccc3o2)nc2ccccc12`, the zone of inhibition at 1000 µg/mL in the data set on Ochrobactrum [1] stood at 14 mm; in the data set with Pantoea dispersa [2], 16 mm; in the data set with Staphylococcus aureus [7] it was 14 mm; with Enterococcus [8], 11 mm. Moreover, the minimal inhibitory concentration (MIC) was 250 mg/L (≈ 576 µM) in the data set on Enterococcus [3], 250 mg/L (≈ 576 µM) in the data set with Staphylococcus aureus [4], 120 mg/L (≈ 276 µM) in the data set with Ochrobactrum [5] and 120 mg/L (≈ 276 µM) against Pantoea dispersa [6].
Regarding `O=C(Oc1cccc2ccccc12)c1cc(-c2cc3ccccc3o2)nc2ccccc12`, the zone of inhibition at 1000 µg/mL in the data set on Ochrobactrum [1] was 11 mm; in the data set with Pantoea dispersa [2], 15 mm; in the data set on Staphylococcus aureus [7], 14 mm; in the data set on Enterococcus [8], 13 mm. Besides, the MIC against Enterococcus [3] is 500 mg/L (≈ 1200 µM); against Staphylococcus aureus [4], 250 mg/L (≈ 602 µM); against Ochrobactrum [5] it was 500 mg/L (≈ 1200 µM); with Pantoea dispersa [6], 120 mg/L (≈ 289 µM). Moreover, the IC50 in data set [9] amounted to 45.6 mg/L (≈ 110 µM). Also, in data set [10], the “inhibition (INH)” value is given as “Active”.
For the compound `Cc1ccc(OC(=O)c2cc(-c3cc4ccccc4o3)nc3ccccc23)cc1`, the zone of inhibition at 1000 µg/mL in the data set with Ochrobactrum [1] was 20 mm; in the data set on Pantoea dispersa [2], 13 mm; with Staphylococcus aureus [7], 19 mm; with Enterococcus [8], 19 mm. Moreover, the MIC was determined as 60 mg/L (≈ 158 µM) in the data set with Enterococcus [3], 60 mg/L (≈ 158 µM) with Staphylococcus aureus [4], 60 mg/L (≈ 158 µM) in the data set on Ochrobactrum [5] and 250 mg/L (≈ 659 µM) in the data set with Pantoea dispersa [6]. In addition, the IC50 in [9] was found to be 49.5 mg/L (≈ 130 µM). Moreover, the “inhibition (INH)” value in data set [10] is given as “Active”.
Take `O=C(Oc1ccccc1Cl)c1cc(-c2cc3ccccc3o2)nc2ccccc12`: the zone of inhibition at 1000 µg/mL in the data set with Ochrobactrum [1] was 14 mm; with Pantoea dispersa [2] it was 16 mm; in the data set with Staphylococcus aureus [7], 12 mm; with Enterococcus [8], 10 mm. Also, the MIC in the data set with Enterococcus [3] is 500 mg/L (≈ 1250 µM); with Staphylococcus aureus [4] it was 500 mg/L (≈ 1250 µM); with Ochrobactrum [5], 250 mg/L (≈ 625 µM); against Pantoea dispersa [6], 120 mg/L (≈ 300 µM). In data set [9], the half-maximal inhibitory concentration (IC50) was greater than 100 mg/L.
For `O=C(Oc1ccc(Cl)cc1)c1cc(-c2cc3ccccc3o2)nc2ccccc12`, the zone of inhibition at 1000 µg/mL with Ochrobactrum [1] came out at 17 mm; with Pantoea dispersa [2] it was 18 mm; in the data set with Staphylococcus aureus [7], 17 mm; in the data set with Enterococcus [8] it was 14 mm. The MIC with Enterococcus [3] came out at 120 mg/L (≈ 300 µM); in the data set with Staphylococcus aureus [4], 120 mg/L (≈ 300 µM); against Ochrobactrum [5] it was 60 mg/L (≈ 150 µM); against Pantoea dispersa [6], 60 mg/L (≈ 150 µM). For the same compound, the “inhibition (INH)” value in data set [10] is given as “Active”.
Consider `Cc1ccccc1OC(=O)c1cc(-c2cc3ccccc3o2)nc2ccccc12`, for which the zone of inhibition at 1000 µg/mL came out at 18 mm in the data set with Ochrobactrum [1], 19 mm with Pantoea dispersa [2], 17 mm with Staphylococcus aureus [7] and 16 mm in the data set with Enterococcus [8]. Besides, the minimum inhibitory concentration (MIC) in the data set on Enterococcus [3] amounted to 60 mg/L (≈ 158 µM); in the data set on Staphylococcus aureus [4], 60 mg/L (≈ 158 µM); against Ochrobactrum [5], 25 mg/L (≈ 65.9 µM); in the data set on Pantoea dispersa [6], 120 mg/L (≈ 316 µM).
Take `O=C(Oc1ccccc1)c1cc(-c2cc3ccccc3o2)nc2ccccc12`: the zone of inhibition at 1000 µg/mL in the data set on Ochrobactrum [1] turned out to be 16 mm; in the data set on Pantoea dispersa [2] it was 18 mm; in the data set with Staphylococcus aureus [7], 16 mm; with Enterococcus [8] it was 12 mm. Moreover, the minimal inhibitory concentration (MIC) came out at 120 mg/L (≈ 328 µM) in the data set on Enterococcus [3], 60 mg/L (≈ 164 µM) against Staphylococcus aureus [4], 60 mg/L (≈ 164 µM) in the data set on Ochrobactrum [5] and 120 mg/L (≈ 328 µM) in the data set with Pantoea dispersa [6]. For the same compound, the “inhibition (INH)” value in data set [10] was “Active”.
Consider `O=C(Oc1ccc(Br)cc1)c1cc(-c2cc3ccccc3o2)nc2ccccc12`, for which the zone of inhibition at 1000 µg/mL was found to be 15 mm in the data set with Ochrobactrum [1], 14 mm in the data set with Pantoea dispersa [2], 18 mm in the data set on Staphylococcus aureus [7] and 16 mm with Enterococcus [8]. Besides, the MIC came out at 60 mg/L (≈ 135 µM) in the data set on Enterococcus [3], 60 mg/L (≈ 135 µM) against Staphylococcus aureus [4], 250 mg/L (≈ 563 µM) with Ochrobactrum [5] and 500 mg/L (≈ 1130 µM) in the data set with Pantoea dispersa [6]. Moreover, in data set [10], the “inhibition (INH)” value is “Active”.
Take `O=C(c1cc(-c2cc3ccccc3o2)nc2ccccc12)N1CCOCC1`: the zone of inhibition at 1000 µg/mL in the data set on Ochrobactrum [1] amounted to 11 mm; in the data set with Pantoea dispersa [2], 13 mm; with Staphylococcus aureus [7], 10 mm; with Enterococcus [8], 13 mm. For the same compound, the MIC with Enterococcus [3] was 120 mg/L (≈ 335 µM); against Staphylococcus aureus [4] it was greater than 500 mg/L; in the data set with Ochrobactrum [5] it was 500 mg/L (≈ 1400 µM); against Pantoea dispersa [6], 250 mg/L (≈ 698 µM).
